Experimental data reported in patent publication US20100323975A1, “THERAPEUTIC AGENT FOR CEREBRAL ISCHEMIC INJURY” (OTSUKA PHARMACEUTICAL FACTORY, INC., priority 2007, published 2010).
Entries after “also recorded” stand apart in the source; their conditions may differ. Each block holds one compound with its values, some of them ahead of it. Peptide text beside a SMILES is read from it.

What was measured:
[1] = Time course of L-histidine concentration in blood after administration of different dipeptides (Test Example 4); type: in vivo, Wister male rats
Description: 7- to 8-week-old Wister male rats were divided into the following 3 administration groups.
(§1) 1.00 g of L-alanyl-L-histidine (manufactured by Bachem) was dissolved in water for injection purpose to prepare 13.70 mL (total amount) of solution. This solution was subjected to sterilization filtration, and it was then poured into syringes (10 mL each per syringe), so as to produce a therapeutic agent for cerebral ischemic injury having a dosage form as an injection. The concentration of L-alanyl-L-histidine in this therapeutic agent for cerebral ischemic injury was 0.32 mol/L (L-histidine concentration: 5% (W/V)).
as §1, with “L-histidyl-L-glycine” for “L-alanyl-L-histidine”, “14.60” for “13.70”
as §1, with “L-histidyl-L-glutamic acid” for “L-alanyl-L-histidine”, “10.90” for “13.70”

Wistar male rats = experiment: Identification of side effects after intravenous administration (Test Example 2); conditions: for Cessation of breathing, number of cases: 4 rats per group
Description: (§2) 7- to 9-week-old Wistar male rats were divided into the following 8 administration groups. The number of rats in each group was set at 4. […]
L-histidine hydrochloride was dissolved in water for injection purpose, and the obtained solution was then adjusted to pH 6.0 with a sodium hydroxide aqueous solution. The obtained injection solution (L-histidine concentration: 10% (W/V)) was administered into the caudal vein of each rat at a rate of 60 mL/kg/hr for 10 minutes.
(§3) L-histidine was added to water for injection purpose, and acetic acid was further added thereto, so as to dissolve L-histidine in the solution. The obtained solution was adjusted to pH 6.0 with a sodium hydroxide aqueous solution. The obtained injection solution (L-histidine concentration: 10% (W/V)) was administered into the caudal vein of each rat at a rate of 60 mL/kg/hr for 10 minutes.
as §3, with “citric” for “acetic”
β-alanyl-L-histidine was added to water for injection purpose, and the obtained solution was then adjusted to pH 7 with hydrochloric acid. The obtained injection solution (L-histidine concentration: 10% (W/V)) was administered into the caudal vein of each rat at a rate of 60 mL/kg/hr for 10 minutes. […]
(§4) After administration of the agent, blood was collected from each rat at regular time intervals, and the concentration of L-histidine (monomer) in blood was then measured using a high speed amino acid analyzer L-8800A (manufactured by Hitachi High-Technologies Corporation). […] In addition, the body temperature, blood pressure, and cardiac rate of each test animal were measured during the period from before administration of the agent until after the administration of the agent, and at the same time, the appearance of each test animal was observed, so as to examine the presence or absence of side effects caused by administration of the agent. The L-histidine concentration in blood was measured 15 minutes after the administration of the agent, and the presence or absence of side effects caused by such administration of the agent was examined.

[2] = L-histidine concentration in blood after intravenous administration (Test Example 2)
Description: as §2
The therapeutic agent for cerebral ischemic injury obtained in Production Example 2 was diluted by a factor of 2, and the thus diluted solution was administered into the caudal vein of each rat at a rate of 60 mL/kg/hr for 10 minutes. […]
as §3
as §3, with “citric” for “acetic”, “minutes. […]” for “minutes.”
as §4

[3] = tested on: model of middle cerebral artery occlusion and subsequent reperfusion (cerebral ischemic injury); experiment: Infarction rate in model of middle cerebral artery occlusion and subsequent reperfusion (Test Example 1); type: in vivo, Wistar male rats; conditions: for Infarction rate (mean value): 90 min occlusion, day after administration, control 49%
Excerpt: Approximately 9-week-old Wistar male rats were used. The method of Koizumi et al. (Nou-socchu (Cerebral Apoplexy), Vol. 8, pp. 1-8, 1986) was applied to the rats under halothane anesthesia, so as to produce models of middle cerebral artery occlusion and subsequent reperfusion. Specifically, each rat was fixed under natural aspiration conditions under anesthesia with gas (initial anesthesia: performed in room air containing 3% halothane; continuous anesthesia: performed in room air containing 1% halothane), and the neck of the rat was then subjected to median incision. Subsequently, the left common carotid and external carotid artery was exfoliated from surrounding connective tissues, and it was then ligated with a ligature. After that, the internal carotid artery was exfoliated from surrounding connective tissues, and it was then ligated with a ligature. Further, using scissors, a hole was made on a site close to the branch point between the left external carotid artery and the internal carotid artery, and a silicon-coated portion of a nylon plug was then inserted into the internal carotid artery at a depth of 15 to 16 mm. Thereby, the tip of the inserted nylon plug exceeded the middle cerebral artery portion and reached the anterior cerebral artery, so that the inlet of the middle cerebral artery was occluded with the silicon-coated portion of the plug. […]
On the day after the administration of the agent, a test animal was anesthetized with ether, and the brain was then excised. […] A slice of brain section was placed, with a surface to be measured down, into each well of a 12-well plate, which had been filled with a 2% TTC solution prepared by dissolving 2,3,5-triphenyltetrazolium chloride (TTC) in a phosphate buffered saline. […] Thus, the area of an infarct on the measurement surface of each brain section (the site in which brain tissue was considered to be necrosed) was measured, and the obtained value was then multiplied by the thickness of the brain section, so as to obtain the volume of an infarct in each brain section. […]

[4] = Solubility in water at 25° C.; type: physicochemical
[5] = male, Wistar, rat, in vivo, 0 min
[6] = male, Wistar, rat, in vivo, 15 min
[7] = male, Wistar, rat, in vivo, 30 min
[8] = male, Wistar, rat, in vivo, 60 min
[9] = male, Wistar, rat, in vivo, 120 min
[10] = male, Wistar, rat, in vivo, -10 min
[11] = 5th administration group: dissolved with acetic acid, pH 6.0, L-histidine 10% (W/V), caudal vein 60 mL/kg/hr for 10 minutes
[12] = 6th administration group: dissolved with citric acid, pH 6.0, L-histidine 10% (W/V), caudal vein 60 mL/kg/hr for 10 minutes

Compound: Cl.N[C@@H](Cc1c[nH]cn1)C(=O)O [L-histidine hydrochloride]
Side effects (Wistar male rats; 4th (pH 6.0) / 7th (pH 7) administration group: L-histidine concentration 10% (W/V), caudal vein 60 mL/kg/hr for 10 minutes, hydrochloride): Decrease in blood pressure; also recorded: Cessation of breathing
Cessation of breathing, number of cases (Wistar male rats; 4th group: during administration of agent, 7th group: immediately after administration, L-histidine 10% (W/V)): agent in 2 cases

Compound: CC1=NN(c2ccccc2)C(=O)C1 [Edaravone, 3-methyl-1-phenyl-2-pyrazoline-5-one]
Infarction rate (mean value) ([3]; Comparison group: bolus injection 3 mg/kg immediately after and 30 minutes after reperfusion): 38%

Compound: C[C@H](N)C(=O)N[C@@H](Cc1c[nH]cn1)C(=O)O [L-alanyl-L-histidine] (H-Ala-His-OH)
Side effects (Wistar male rats; rat, in vivo): None
Factor of increase of L-histidine concentration in blood when the concentration administered was increased by a factor of 2 [2, 6]: 3-3.5
L-histidine concentration in blood [1, 5]: 7588.27 nmol/mL
L-histidine concentration in blood immediately after completion of administration, relative to second administration group (L-histidyl-L-glycine) [1, 5]: approximately 2 times
L-histidine concentration in blood immediately after completion of administration, relative to third administration group (L-histidyl-L-glutamic acid) [1, 5]: approximately 5 times
L-histidine concentration in blood [1, 6]: 3802.80 nmol/mL
L-histidine concentration in blood [1, 7]: 2198.93 nmol/mL
L-histidine concentration in blood [1, 8]: 770.17 nmol/mL
L-histidine concentration in blood [1, 9]: 268.77 nmol/mL
L-histidine concentration in blood [1, 10]: 76.67 nmol/mL
Cerebral ischemic injury during cerebral ischemia-reperfusion compared with control group and comparison group ([3]; Experiment group, Production Example 1 injection): remarkably suppressed
Infarction rate (mean value) ([3]; Experiment group: Production Example 1 injection (1.29 mol/L), caudal vein 60 mL/kg/hr for 10 minutes, immediately after and 6 hours after reperfusion): 20%
solubility [4]: ≥ 3500 mM

Compound: CC(=O)N[C@@H](Cc1c[nH]cn1)C(=O)O [N-acetyl-L-histidine]
Side effects (Wistar male rats; rat, in vivo, pH 7): None
L-histidine concentration in blood (mean value) ([2]; male, Wistar, rat, in vivo, 15 min, pH 7): 0.25 mM

Further lines, with some results ahead:

L-histidine concentration in blood [1, 5]: 1546.15 nmol/mL
L-histidine concentration in blood [1, 6]: 2090.10 nmol/mL
L-histidine concentration in blood [1, 7]: 1827.15 nmol/mL
L-histidine concentration in blood [1, 8]: 926.80 nmol/mL
L-histidine concentration in blood [1, 9]: 233.20 nmol/mL
L-histidine concentration in blood [1, 10]: 78.40 nmol/mL
Compound: N[C@@H](Cc1c[nH]cn1)C(=O)N[C@@H](CCC(=O)O)C(=O)O [L-histidyl-L-glutamic acid] (H-His-Glu-OH)

L-histidine concentration in blood ([1]; 0 min after administration, 0.32 mol/L, caudal vein 60 mL/kg/hr for 10 minutes): 3995.57 nmol/mL
L-histidine concentration in blood ([1]; 15 min after administration, 0.32 mol/L, caudal vein 60 mL/kg/hr for 10 minutes): 3798.87 nmol/mL
L-histidine concentration in blood ([1]; 30 min after administration, 0.32 mol/L, caudal vein 60 mL/kg/hr for 10 minutes): 2019.47 nmol/mL
L-histidine concentration in blood ([1]; 60 min after administration, 0.32 mol/L, caudal vein 60 mL/kg/hr for 10 minutes): 833.93 nmol/mL
L-histidine concentration in blood ([1]; 120 min after administration, 0.32 mol/L, caudal vein 60 mL/kg/hr for 10 minutes): 244.03 nmol/mL
L-histidine concentration in blood ([1]; −10 min (before administration), 0.32 mol/L, caudal vein 60 mL/kg/hr for 10 minutes): 74.73 nmol/mL
Compound: N[C@@H](Cc1cnc[nH]1)C(=O)NCC(=O)O [L-histidyl-L-glycine] (H-His-Gly-OH)

L-histidine concentration in blood (mean value) [2, 6]: 0.30 mM
Compound: NCCC(=O)N[C@@H](Cc1cnc[nH]1)C(=O)O [β-alanyl-L-histidine]
Side effects (Wistar male rats; rat, in vivo): Cessation of breathing

L-histidine concentration in blood (mean value) [2, 11]: Not be measurable
L-histidine concentration in blood (mean value) [2, 12]: Not be measurable
Compound: N[C@@H](Cc1c[nH]cn1)C(=O)O [L-histidine]
Side effects (Wistar male rats; [11]): Decrease in blood pressure; also recorded: Cessation of breathing
Cessation of breathing, number of cases (Wistar male rats; 5th group (acetic acid, pH 6.0, 10% (W/V)): immediately after administration of agent): administration of agent in 4 cases
Side effects (Wistar male rats; [12]): Decrease in blood pressure; also recorded: Cessation of breathing
Cessation of breathing, number of cases (Wistar male rats; 6th group (citric acid, pH 6.0, 10% (W/V)): during administration of agent): agent in 4 cases
